Data published in patent EP4603105A1, “PHARMACEUTICAL COMPOSITION CONTAINING CYCLIC COMPOUND HAVING SELECTIVE KRAS INHIBITORY EFFECT AGAINST HRAS AND NRAS” (CHUGAI SEIYAKU KABUSHIKI KAISHA, priority 2022, dated 2024).
pIC50: −log10 of the molar value.

Key:
[1] = tested on: human lung cancer strain NCI-H441; type: cell-based
How it was run: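 Signal came from […] measured per well once the reagent was added. Beforehand, cells were cultured at 37°C and 5% carbon dioxide on a compound series serially diluted in dimethyl sulfoxide.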

[2] = target: GDP-bound NRAS wild-type protein (Homo sapiens, UniProt P01111); assay: Binding to NRAS by surface plasmon resonance (SPR), KD and KD ratio to KRAS; details: ratio of the KD value with respect to GDP-bound NRAS wild-type protein to the KD value with respect to KRAS
Sequence of GDP-bound NRAS wild-type protein (P01111 whole entry): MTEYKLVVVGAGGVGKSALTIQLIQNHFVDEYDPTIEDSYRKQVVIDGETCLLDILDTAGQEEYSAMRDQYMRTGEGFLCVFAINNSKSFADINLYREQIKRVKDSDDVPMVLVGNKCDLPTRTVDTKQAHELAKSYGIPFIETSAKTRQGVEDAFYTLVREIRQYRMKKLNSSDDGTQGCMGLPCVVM
How it was run: (§1)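 Measured at 30°C: SPR with GDP-loaded, E. coli-expressed biotin-Avi RAS captured (~100–300 RU), ascending 75 s compound injections, HBS pH 7.4 with GDP, MgCl2, 4% DMSO. KD from 1:1 fit.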

HRAS wild-type protein = HRAS wild-type protein (Homo sapiens, UniProt P01112); assay: Binding to HRAS by surface plasmon resonance (SPR), KD and KD ratio to KRAS; details: ratio of the KD value with respect to HRAS wild-type protein to the KD value with respect to KRAS
Sequence of HRAS wild-type protein (P01112 whole entry): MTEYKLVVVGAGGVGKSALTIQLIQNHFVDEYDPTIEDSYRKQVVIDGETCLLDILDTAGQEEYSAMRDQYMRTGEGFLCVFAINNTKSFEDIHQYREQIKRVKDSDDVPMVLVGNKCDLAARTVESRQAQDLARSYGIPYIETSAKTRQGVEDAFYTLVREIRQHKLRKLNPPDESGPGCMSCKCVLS
How it was run: as §1

Row | pIC50 [1] | SMILES | NRAS /KRAS [2] | HRAS /KRAS (HRAS wild-type protein)
1 | 6.15 | CC[C@H](C)[C@@H]1NC(=O)[C@H](CC(C)C)N(C)C(=O)C[C@@H](C(=O)N2CCOCC2)N(C)C(=O)[C@H](CC(F)(F)F)N(C)C(=O)C2(CCCC2)NC(=O)[C@@H]2CCCN2C(=O)[C@H](CCc2cc(F)c(C(F)(F)F)c(F)c2)NC(=O)CN(C)C(=O)[C@H](Cc2ccc(C(F)(F)F)cc2)N2CCCCC[C@@H](C2=O)N(C)C(=O)CN(C)C1=O [PP0506] | B (a compound having 3 or more and less than 10 is denoted as B) | B (a compound having 3 or more and less than 10 is denoted as B)
2 | 7.21 | CC[C@H](C)[C@@H]1NC(=O)[C@H](CC(C)C)N(C)C(=O)C[C@@H](C(=O)N(C)C)N(C)C(=O)[C@H](C2CCCC2)N(C)C(=O)C2(CCCC2)NC(=O)[C@@H]2CCCN2C(=O)[C@H](CCc2cc(F)c(C(F)(F)F)c(F)c2)NC(=O)CN(C)C(=O)[C@H](Cc2ccc(C(F)(F)F)cc2)N2CCCCC[C@@H](C2=O)N(C)C(=O)CN(C)C1=O [PP0507] | B (a compound having 3 or more and less than 10 is denoted as B) | B (a compound having 3 or more and less than 10 is denoted as B)
3 | 6.62 | CC[C@H](C)[C@@H]1NC(=O)[C@H](CC(C)C)N(CC)C(=O)C[C@@H](C(=O)N2CCOCC2)N(C)C(=O)[C@H](C2CCCC2)N(C)C(=O)C2(CCCC2)NC(=O)[C@@H]2CCCN2C(=O)[C@H](CCc2cc(F)c(C(F)(F)F)c(F)c2)NC(=O)CN(C)C(=O)[C@H](Cc2ccc(C(F)(F)F)cc2)N2CCCCC[C@@H](C2=O)N(C)C(=O)CN(C)C1=O [PP0513] | B (a compound having 3 or more and less than 10 is denoted as B) | B (a compound having 3 or more and less than 10 is denoted as B)
4 | 6.51 | CC[C@H](C)[C@@H]1NC(=O)[C@H](CC(C)C)N(C)C(=O)C[C@@H](C(=O)N(C)C)N(C)C(=O)[C@H](C2CCCC2)N(C)C(=O)C2(CCCC2)NC(=O)[C@@H]2CCCN2C(=O)[C@H](CCc2cc(F)c(C(F)(F)F)c(F)c2)NC(=O)CN(C)C(=O)[C@H](Cc2ccc(C(F)(F)F)cc2)N2CCCCC[C@@H](C2=O)N(C)C(=O)CN(CC)C1=O [PP0514] | B (a compound having 3 or more and less than 10 is denoted as B) | B (a compound having 3 or more and less than 10 is denoted as B)
5 | 6.20 | CC[C@H](C)[C@@H]1NC(=O)[C@H](CC(C)C)N(C)C(=O)C[C@@H](C(=O)N2CCOCC2)N(C)C(=O)[C@H](C2CCCC2)N(C)C(=O)C2(CCCC2)NC(=O)[C@H](C)N(CC)C(=O)[C@H](CCc2cc(F)c(C(F)(F)F)c(F)c2)NC(=O)CN(C)C(=O)[C@H](Cc2ccc(C(F)(F)F)cc2)N2CCCCC[C@@H](C2=O)N(C)C(=O)CN(C)C1=O [PP0515] | B (a compound having 3 or more and less than 10 is denoted as B) | B (a compound having 3 or more and less than 10 is denoted as B)
6 | 6.34 | CC[C@H](C)[C@@H]1NC(=O)[C@H](CC(C)C)NC(=O)C[C@@H](C(=O)N2CCOCC2)N(C)C(=O)[C@H](C2CCCC2)N(C)C(=O)C2(CCCC2)NC(=O)[C@@H]2CCCN2C(=O)[C@H](CCc2cc(F)c(C(F)(F)F)c(F)c2)NC(=O)CN(C)C(=O)[C@H](Cc2ccc(C(F)(F)F)cc2)N2CCCCC[C@@H](C2=O)N(C)C(=O)CN(C)C1=O [PP0516] | B (a compound having 3 or more and less than 10 is denoted as B) | B (a compound having 3 or more and less than 10 is denoted as B)
7 | 7.77 | CC[C@H](C)[C@@H]1NC(=O)[C@H](CC(F)(F)F)N(C)C(=O)C[C@@H](C(=O)N2CCOCC2)N(C)C(=O)[C@H](C2CCCC2)N(C)C(=O)C2(CCCC2)NC(=O)[C@@H]2CCCN2C(=O)[C@H](CCc2cc(F)c(C(F)(F)F)c(F)c2)NC(=O)CN(C)C(=O)[C@H](Cc2ccc(C(F)(F)F)cc2)N2CCCCC[C@@H](C2=O)N(C)C(=O)CN(C)C1=O [PP0520] | B (a compound having 3 or more and less than 10 is denoted as B) | B (a compound having 3 or more and less than 10 is denoted as B)

Further lines, the compound ahead of its results:

Row | SMILES | pIC50 [1] | NRAS /KRAS [2] | HRAS /KRAS (HRAS wild-type protein)
8 | CC[C@H](C)[C@@H]1NC(=O)[C@H](CC(C)C)N(C)C(=O)C[C@@H](C(=O)N2CCOCC2)N(C)C(=O)[C@H](C2CCCCC2)N(C)C(=O)C2(CCCC2)NC(=O)[C@@H]2CCCN2C(=O)[C@H](CCc2cc(F)c(C(F)(F)F)c(F)c2)NC(=O)CN(C)C(=O)[C@H](Cc2ccc(C(F)(F)F)cc2)N2CCCCC[C@@H](C2=O)N(C)C(=O)CN(C)C1=O [PP0505] | 6.68 | B (a compound having 3 or more and less than 10 is denoted as B) | B (a compound having 3 or more and less than 10 is denoted as B)
9 | CC[C@H](C)[C@@H]1NC(=O)[C@H](CC(C)C)N(C)C(=O)C[C@@H](C(=O)N2CCCC2)N(C)C(=O)[C@H](C2CCCC2)N(C)C(=O)C2(CCCC2)NC(=O)[C@@H]2CCCN2C(=O)[C@H](CCc2cc(F)c(C(F)(F)F)c(F)c2)NC(=O)CN(C)C(=O)[C@H](Cc2ccc(C(F)(F)F)cc2)N2CCCCC[C@@H](C2=O)N(C)C(=O)CN(C)C1=O [PP0509] | 6.96 | B (a compound having 3 or more and less than 10 is denoted as B) | B (a compound having 3 or more and less than 10 is denoted as B)
10 | CC[C@H](C)[C@@H]1NC(=O)[C@H](CC(C)C)N(C)C(=O)C[C@@H](C(=O)N2CCCCC2)N(C)C(=O)[C@H](C2CCCC2)N(C)C(=O)C2(CCCC2)NC(=O)[C@@H]2CCCN2C(=O)[C@H](CCc2cc(F)c(C(F)(F)F)c(F)c2)NC(=O)CN(C)C(=O)[C@H](Cc2ccc(C(F)(F)F)cc2)N2CCCCC[C@@H](C2=O)N(C)C(=O)CN(C)C1=O [PP0510] | 6.41 | B (a compound having 3 or more and less than 10 is denoted as B) | B (a compound having 3 or more and less than 10 is denoted as B)
11 | CC[C@H](C)[C@@H]1NC(=O)[C@H](CC(C)C)N(C)C(=O)C[C@@H](C(=O)N(C)C)N(C)C(=O)[C@H](C2CCCC2)N(C)C(=O)C2(CCC2)NC(=O)[C@@H]2CCCN2C(=O)[C@H](CCc2cc(F)c(C(F)(F)F)c(F)c2)NC(=O)CN(C)C(=O)[C@H](Cc2ccc(C(F)(F)F)cc2)N2CCCCC[C@@H](C2=O)N(C)C(=O)CN(C)C1=O [PP0512] | 7.53 | B (a compound having 3 or more and less than 10 is denoted as B) | B (a compound having 3 or more and less than 10 is denoted as B)
12 | CC[C@H](C)[C@@H]1NC(=O)[C@@H]2CCCCCN2C(=O)C[C@@H](C(=O)N2CCOCC2)N(C)C(=O)[C@H](C2CCCC2)N(C)C(=O)C2(CCCC2)NC(=O)[C@@H]2CCCN2C(=O)[C@H](CCc2cc(F)c(C(F)(F)F)c(F)c2)NC(=O)CN(C)C(=O)[C@H](Cc2ccc(C(F)(F)F)cc2)N2CCCCC[C@@H](C2=O)N(C)C(=O)CN(C)C1=O [PP0521] | 6.23 | B (a compound having 3 or more and less than 10 is denoted as B) | B (a compound having 3 or more and less than 10 is denoted as B)
